{"source": "patent US11596637B2", "about": "“CHK1 (SRA737)/PARPi combination methods of inhibiting tumor growth” (SIERRA ONCOLOGY, INC., priority 2017, dated 2023)", "key": {"[1]": {"system": "10 cancer cell lines", "assay_type": "cell-based", "conditions": "for single agent activity across the cancer cell lines tested (in words): 10 cancer cell lines", "protocol": "(§1) Briefly, cell lines were preserved in liquid nitrogen and thawed and expanded in growth media containing full serum. As the cells reached expected doubling times, the screening assay began. Cells were seeded in growth media and equilibrated via centrifugation. The cell cultures were placed in incubators and then underwent treatment. Assay plates were collected and ATP levels were measured. Assay plates were incubated with combinations for seventy two (72) or ninety six (96) hours in simultaneous and sequential dosing schedules.\n(§2) Cell lines that have been preserved in liquid nitrogen were thawed and expanded in growth media containing full serum. Once cells have reached expected doubling times, screening began. Cells were seeded in growth media in black 384-well tissue culture treated plates at cell densities as listed in Appendix 1 incorporated into and part of this specification. Cells were equilibrated in assay plates via centrifugation and placed in incubators (attached to the Dosing Modules) at 37° C. for 24 hours before treatment. […] These Tzero (T0) plates were read using ultra-sensitive luminescence on Envision plate readers. Assay plates were incubated with compounds for 72 and were then analyzed using ATPLite™.\n(§3) Chalice Analyzer allows two ways of visualizing single agent dose response curves. The Logistics Curve fit modeling in Analyzer uses sigmoidal modeling of the data points. In most contexts, the Logistics Curve fit will accurately model the dose response curve. All subsequent analyses for the single agent and combination activities of SRA737 contained within the Examples use the Linear Interpolation Curve fit.\n(§4) A GI 100% represents complete growth inhibition (cytostasis) and in this case cells treated with compound for 72 or 96 hours would have the same endpoint reading as T0 control cells. A GI of 200% represents complete death (cytotoxicity) of all cells in the culture well and in this case the T reading at 72 or 96 hours will be lower than the T0 control (values near or at zero). These GI calculations were used in all single agent and combination data analysis for the combination screen.\n(§5) Single agent activity of SRA737 and four PARP inhibitors in each of 10 cancer cell lines comprising breast, ovarian, prostate sarcoma and head and neck cancer cells was assessed (FIGS. 3-9). The 10 cancer cell lines examined were: A673, B-474, CAL-27, DU-145, MDA-MB-231, OVCAR-3, OVCAR-5, PC-3, HT-29 and SK-BR-3. The cell lines were screened with a 72 hour treatment schedule. Cell viability was measured by detection of ATP metabolism using an ATP monitoring luminescence detection assay (ATPLite™) GI50, IC50, Maximum Response Observed (Max Response) were calculated (FIG. 5)."}, "[2]": {"system": "HT-29 cells", "test": "Single agent assessment, ATPLite cell viability, 72 hour treatment", "assay_type": "cell-based, human", "protocol": "as §1, §2, §3, §4, §5"}, "[3]": {"system": "PC-3 cells", "test": "Single agent assessment, ATPLite cell viability, 72 hour treatment", "assay_type": "cell-based, human", "protocol": "as §1, §2, §3, §4, §5"}, "[4]": {"system": "BT-474 cells", "test": "Single agent assessment, ATPLite cell viability, 72 hour treatment", "assay_type": "cell-based, human", "protocol": "as §1, §2, §3, §4, §5"}, "[5]": {"system": "SK-BR-3 cells", "test": "Single agent assessment, ATPLite cell viability, 72 hour treatment", "assay_type": "cell-based, human", "protocol": "as §1, §2, §3, §4, §5"}, "[6]": {"system": "DU145 cells", "test": "Single agent assessment, ATPLite cell viability, 72 hour treatment", "assay_type": "cell-based, human", "protocol": "as §1, §2, §3, §4, §5"}, "[7]": {"system": "OVCAR-5 cells", "test": "Single agent assessment, ATPLite cell viability, 72 hour treatment", "assay_type": "cell-based, human", "protocol": "as §1, §2, §3, §4, §5"}, "[8]": {"system": "CAL-27 cells", "test": "Single agent assessment, ATPLite cell viability, 72 hour treatment", "assay_type": "cell-based, human", "protocol": "as §1, §2, §3, §4, §5"}, "[9]": {"system": "A673 cells", "test": "Single agent assessment, ATPLite cell viability, 72 hour treatment", "assay_type": "cell-based, human", "protocol": "as §1, §2, §3, §4, §5"}, "[10]": {"system": "OVCAR-3 cells", "test": "Single agent assessment, ATPLite cell viability, 72 hour treatment", "assay_type": "cell-based, human", "protocol": "as §1, §2, §3, §4, §5"}, "[11]": {"system": "MDA-MB-231 cells", "test": "Single agent assessment, ATPLite cell viability, 72 hour treatment", "assay_type": "cell-based, human", "protocol": "as §1, §2, §3, §4, §5"}}, "note": "Like-named read-outs stand apart in the source and are kept apart here."}
{"smiles": "Cn1ncnc1[C@H]1c2n[nH]c(=O)c3cc(F)cc(c23)N[C@@H]1c1ccc(F)cc1", "note": "[BMN 673, Talazoparib]", "values": [{"measurement": "single agent activity across the cancer cell lines tested (in words)", "setting": "[1]; 72 hour treatment", "result": "activity in most of the cancer cell lines tested"}]}
{"smiles": "NC(=O)c1cccc2cn(-c3ccc([C@@H]4CCCNC4)cc3)nc12", "note": "[Niraparib]", "values": [{"measurement": "single agent activity across the cancer cell lines tested (in words)", "setting": "[1]; 72 hour treatment", "result": "activity in most of the cancer cell lines tested"}]}
{"smiles": "O=C(c1cc(Cc2n[nH]c(=O)c3ccccc23)ccc1F)N1CCN(C(=O)C2CC2)CC1", "note": "[Olaparib]", "values": [{"measurement": "single agent activity across the cancer cell lines tested (in words)", "setting": "[1]; 72 hour treatment", "result": "activity in most of the cancer cell lines tested"}]}
{"smiles": "CNCc1ccc(-c2[nH]c3cc(F)cc4c3c2CCNC4=O)cc1", "note": "[Rucaparib]", "values": [{"measurement": "single agent activity across the cancer cell lines tested (in words)", "setting": "[1]; 72 hour treatment", "result": "activity in most of the cancer cell lines tested"}]}
{"smiles": "N#Cc1cnc(Nc2cc(NCC3CNCCO3)c(C(F)(F)F)cn2)cn1", "note": "(centres unmarked) [SRA737, 5-[[4-[[morpholin-2-yl]methylamino]-5-(trifluoromethyl)-2-pyridyl]amino]pyrazine-2-carbonitrile]", "values": [{"measurement": "number of cancer cell lines in which single agent activity was demonstrated", "setting": "[1]; of the 10 cancer cell lines, 72 hour treatment", "result": 8}, {"measurement": "kind of single agent effect (cytotoxic / cytostatic)", "setting": "[1]; the remaining six responsive cell lines", "result": "cytostatic"}, {"measurement": "kind of single agent effect (cytotoxic / cytostatic)", "setting": "[1]; the two most responsive cell lines", "result": "modestly cytotoxic"}, {"measurement": "sensitivity of the cell line to the single agent", "setting": "[2]", "result": "intermediate sensitivity"}, {"measurement": "sensitivity of the cell line to the single agent", "setting": "[3]", "result": "least sensitivity"}, {"measurement": "sensitivity of the cell line to the single agent", "setting": "[4]", "result": "least sensitivity"}, {"measurement": "sensitivity of the cell line to the single agent", "setting": "[5]", "result": "highest sensitivity"}, {"measurement": "sensitivity of the cell line to the single agent", "setting": "[6]", "result": "intermediate sensitivity"}, {"measurement": "sensitivity of the cell line to the single agent", "setting": "[7]", "result": "highest sensitivity"}, {"measurement": "sensitivity of the cell line to the single agent", "setting": "[8]", "result": "least sensitivity"}, {"measurement": "sensitivity of the cell line to the single agent", "setting": "[9]", "result": "intermediate sensitivity"}, {"measurement": "sensitivity of the cell line to the single agent", "setting": "[10]", "result": "intermediate sensitivity"}, {"measurement": "sensitivity of the cell line to the single agent", "setting": "[11]", "result": "least sensitivity"}]}
